Measured values: patent US20230321008A1, “INHIBITORS OF ACID SPHINGOMYELINASE FOR PREVENTING AND TREATING THE COVID-19 DISEASE” (priority 2020, published 2023)
“Also recorded” adds a separate entry of the source.

Experiments:
[1] = test system: ceramide-enriched membrane domains; details: in vitro; cited from earlier work
[2] = test system: SARS-CoV-2; details: cited from earlier work
[3] = molecular target: T1, acid sphingomyelinase (ASM) (Homo sapiens, UniProt P17405); details: cited from earlier work
T1 sequence (P17405 47-631): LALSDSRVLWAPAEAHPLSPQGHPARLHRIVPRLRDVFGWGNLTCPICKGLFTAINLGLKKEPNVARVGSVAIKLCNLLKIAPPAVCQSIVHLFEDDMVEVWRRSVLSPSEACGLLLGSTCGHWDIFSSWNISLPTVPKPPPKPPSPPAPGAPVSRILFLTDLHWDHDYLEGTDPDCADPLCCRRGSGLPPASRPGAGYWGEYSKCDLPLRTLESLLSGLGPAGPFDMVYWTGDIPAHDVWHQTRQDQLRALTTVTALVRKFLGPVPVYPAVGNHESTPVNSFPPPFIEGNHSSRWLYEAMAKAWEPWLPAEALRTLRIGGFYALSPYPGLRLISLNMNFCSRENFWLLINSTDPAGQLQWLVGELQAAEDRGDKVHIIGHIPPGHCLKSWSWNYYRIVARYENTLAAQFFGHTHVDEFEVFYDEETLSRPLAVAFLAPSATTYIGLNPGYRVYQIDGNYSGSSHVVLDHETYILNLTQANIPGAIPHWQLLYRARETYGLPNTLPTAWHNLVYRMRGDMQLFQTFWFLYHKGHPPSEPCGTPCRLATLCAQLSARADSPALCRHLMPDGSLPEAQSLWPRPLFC

[4] = test system: COVID-19; details: human, in vivo; cited from earlier work
[5] = test system: glia activation; details: dependent on glia activation; cited from earlier work
[6] = molecular target: Sigma-1 receptors (S1R) (Homo sapiens, UniProt Q99720); details: cited from earlier work
Sigma-1 receptors (S1R), sequence (Q99720 whole entry): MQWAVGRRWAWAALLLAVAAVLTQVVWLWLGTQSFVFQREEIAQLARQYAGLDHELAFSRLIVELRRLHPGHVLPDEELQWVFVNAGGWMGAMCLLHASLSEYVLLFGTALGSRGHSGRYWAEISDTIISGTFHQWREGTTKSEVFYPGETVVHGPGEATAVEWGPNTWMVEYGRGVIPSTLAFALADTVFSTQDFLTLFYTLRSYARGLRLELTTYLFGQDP

[7] = test system: severe COVID-19; assay: Example 2: multicenter observational retrospective cohort study, FIASMA medication use at baseline and intubation or death in patients hospitalized for severe COVID-19; format: in vivo, human; details: vs no FIASMA medication
Text: We included all adults aged 18 years or over who have been hospitalized in these medical centers for severe COVID-19. COVID-19 was ascertained by a positive reverse-transcriptase-polymerase-chain-reaction (RT-PCR) test from analysis of nasopharyngeal or oropharyngeal swab specimens. Severe COVID-19 at admission was defined as having at least one of the following criteria: respiratory rate > 24 breaths/min or < 12 breaths/min, resting peripheral capillary oxygen saturation in ambient air < 90%, temperature > 40° C., systolic blood pressure < 100 mm Hg or high lactate levels. AP-HP clinical Data Warehouse initiatives ensure patient information and informed consent regarding the different approved studies through a transparency portal in accordance with European Regulation on data protection and authorization n°1980120 from National Commission for Information Technology and Civil Liberties (CNIL).
We used data from the AP-HP Health Data Warehouse (‘Entrepôt de Données de Santé (EDS)’). This warehouse contains all available clinical data on all inpatient visits for COVID-19 to any Greater Paris University hospital. The data included patient demographic characteristics, vital signs, laboratory test and RT-PCR test results, medication administration data, medication lists during current and past hospitalizations in AP-HP hospitals, current diagnoses, discharge disposition, and death certificates.
We obtained the following data for each patient at the time of the hospitalization: sex; age, which was categorized into 4 classes based on the OpenSAFELY study results (i.e. 18-50, 51-70, 71-80, 81+); hospital, which was categorized into 4 classes following the administrative clustering of AP-HP hospitals in Paris and its suburbs based on their geographical location (i.e., AP-HP Centre - Paris University, Henri Mondor University Hospitals and at home hospitalization; AP-HP Nord and Hôpitaux Universitaires Paris Seine-Saint-Denis; AP-HP Paris Saclay University; and AP-HP Sorbonne University); obesity, which was defined as having a body mass index higher than 30 kg/m^2 or an International Statistical Classification of Diseases and Related Health Problems (ICD-10) diagnosis code for obesity (E66.0, E66.1, E66.2, E66.8, E66.9); self-reported current smoking status; and any medication prescribed according to compassionate use or as part of a clinical trial (e.g. hydroxychloroquine, azithromycin, remdesivir, tocilizumab, sarilumab, or dexamethasone). To take into account possible confounding by indication bias for FIASMA medication, we recorded whether patients had any current diagnosis, based on ICD-10 diagnosis codes, for neoplasms and diseases of the blood (C00-D89); mental disorders (F01-F99); diseases of the nervous system (G00-G99); cardiovascular disorders (I00-I99); respiratory disorders (J00-J99); digestive disorders (K00-K95); dermatological disorders (L00-L99); diseases of the musculoskeletal system (M00-M99); diseases of the genitourinary system (N00-N99); endocrine disorders (E00-E89); and eye-ear-nose-throat disorders (H00-H95).
All medical notes and prescriptions are computerized in Greater Paris University hospitals. Medications including their dosage, frequency, date, and mode of administration were identified from medication administration data or scanned handwritten medical prescriptions, through two deep learning models based on BERT contextual embeddings, one for the medications and another for their mode of administration. The model was trained on the APmed corpus, a previously annotated dataset for this task. Extracted medications names were then normalized to the Anatomical Therapeutic Chemical (ATC) terminology using approximate string matching.
FIASMA medication use was defined as receiving at least one FIASMA medication at study baseline, i.e. within the first 24 hours of hospital admission, and before the end of the index hospitalization, intubation or death.

[8] = test system: SARS-CoV-2; details: in vitro; cited from earlier work

SMILES: CN(C)CCCN1c2ccccc2CCc2ccccc21 [imipramine]
- Formation of ceramide-enriched membrane domains (in words) [1]: inhibited ASM and the formation of ceramide-enriched membrane domains
- Infection of Vero cells with SARS-CoV-2 (in words) [2]: prevented Vero cells from being infected with SARS-CoV-2
- In vitro inhibition of acid sphingomyelinase (in words) [3]: inhibited ASM; also recorded: in vitro inhibit acid sphingomyelinase with varying degrees

SMILES: CC[C@H]1OC(=O)[C@H](C)[C@@H](O[C@H]2C[C@@](C)(OC)[C@@H](O)[C@H](C)O2)[C@H](C)[C@@H](O[C@@H]2O[C@H](C)C[C@H](N(C)C)[C@H]2O)[C@](C)(O)C[C@@H](C)CN(C)[C@H](C)[C@@H](O)[C@]1(C)O [azithromycin]
- Effect on mortality in patients hospitalized with COVID-19 (in words) [4]: non-significant effect on mortality

SMILES: CNCCCC12CCC(c3ccccc31)c1ccccc12 [maprotiline]
- Formation of ceramide-enriched membrane domains (in words) [1]: inhibited ASM and the formation of ceramide-enriched membrane domains
- Infection of Vero cells with SARS-CoV-2 (in words) [2]: prevented Vero cells from being infected with SARS-CoV-2
- In vitro inhibition of acid sphingomyelinase (in words) [3]: inhibited ASM; also recorded: in vitro inhibit acid sphingomyelinase with varying degrees

SMILES: CN(C)CCCN1c2ccccc2Sc2ccc(Cl)cc21 [Chlorpromazine, chlorpromazine]
- Anti-inflammatory effect (in words) [5]: anti-inflammatory effect was observed
- In vitro inhibition of acid sphingomyelinase (in words) [3]: in vitro inhibit acid sphingomyelinase with varying degrees
- Affinity for Sigma-1 receptors (in words) [6]: low or no affinity for S1R
- Association of use at baseline with risk of intubation or death (in words) [7]: effective preventive and curative treatments for reducing risk of death or intubation

SMILES: Cc1nc2n(c(=O)c1CCN1CCC(c3noc4cc(F)ccc34)CC1)CCCC2 [risperidone]
- Anti-inflammatory effect (in words) [5]: anti-inflammatory effect was observed

SMILES: Fc1ccc([C@@H]2CCNC[C@H]2COc2ccc3c(c2)OCO3)cc1 [Paroxetine, paroxetine]
- In vitro inhibition of acid sphingomyelinase (in words) [3]: in vitro inhibit acid sphingomyelinase with varying degrees
- Affinity for Sigma-1 receptors (in words) [6]: low or no affinity for S1R
- Inhibition of viral replication (in words) [8]: inhibition of viral replication was not observed

SMILES: CCN(CCO)CCCC(C)Nc1ccnc2cc(Cl)ccc12 (stereo not drawn) [hydroxychloroquine]
- Effect on mortality in patients hospitalized with COVID-19 (in words) [4]: non-significant effect on mortality

SMILES: Clc1ccc2c(c1)CCc1cccnc1C2=C1CCNCC1 [Desloratadine, desloratadine]
- Association of use at baseline with risk of intubation or death (in words) [7]: effective preventive and curative treatments for reducing risk of death or intubation

SMILES: CCCCc1oc2ccccc2c1C(=O)c1cc(I)c(OCCN(CC)CC)c(I)c1 [Amiodarone, amiodarone]
- Association of use at baseline with risk of intubation or death (in words) [7]: effective preventive and curative treatments for reducing risk of death or intubation

SMILES: CN[C@H]1CC[C@@H](c2ccc(Cl)c(Cl)c2)c2ccccc21 [Sertraline, sertraline]
- Formation of ceramide-enriched membrane domains (in words) [1]: inhibited ASM and the formation of ceramide-enriched membrane domains
- Infection of Vero cells with SARS-CoV-2 (in words) [2]: prevented Vero cells from being infected with SARS-CoV-2
- In vitro inhibition of acid sphingomyelinase (in words) [3]: inhibited ASM; also recorded: in vitro inhibit acid sphingomyelinase with varying degrees
- Affinity for Sigma-1 receptors (in words) [6]: low or no affinity for S1R

SMILES: CN(C)C(=O)C(CCN1CCC(O)(c2ccc(Cl)cc2)CC1)(c1ccccc1)c1ccccc1 [Loperamide, loperamide]
- In vitro inhibition of acid sphingomyelinase (in words) [3]: in vitro inhibit acid sphingomyelinase with varying degrees
- Association of use at baseline with risk of intubation or death (in words) [7]: effective preventive and curative treatments for reducing risk of death or intubation

SMILES: O=C(CCCN1CCC(O)(c2ccc(Cl)cc2)CC1)c1ccc(F)cc1 [haloperidol]
- Anti-inflammatory effect (in words) [5]: anti-inflammatory effect was observed

SMILES: CNCCCN1c2ccccc2CCc2ccccc21 [desipramine]
- Formation of ceramide-enriched membrane domains (in words) [1]: inhibited ASM and the formation of ceramide-enriched membrane domains
- Infection of Vero cells with SARS-CoV-2 (in words) [2]: prevented Vero cells from being infected with SARS-CoV-2
- In vitro inhibition of acid sphingomyelinase (in words) [3]: inhibited ASM; also recorded: in vitro inhibit acid sphingomyelinase with varying degrees

SMILES: O=C1CCc2ccc(OCCCCN3CCN(c4cccc(Cl)c4Cl)CC3)cc2N1 [Aripiprazole, aripiprazole]
- In vitro inhibition of acid sphingomyelinase (in words) [3]: in vitro inhibit acid sphingomyelinase with varying degrees
- Affinity for Sigma-1 receptors (in words) [6]: low or no affinity for S1R
- Association of use at baseline with risk of intubation or death (in words) [7]: effective preventive and curative treatments for reducing risk of death or intubation

SMILES: CNCC[C@H](Oc1cccc2ccccc12)c1cccs1 [Duloxetine, duloxetine]
- In vitro inhibition of acid sphingomyelinase (in words) [3]: in vitro inhibit acid sphingomyelinase with varying degrees
- Affinity for Sigma-1 receptors (in words) [6]: low or no affinity for S1R
